Test results: US20250074891A1 (Anaxis Pharma Pty Ltd., priority 2021, published 2025)

What was measured:
Details in all cases: Table 35
RIP1 = RIP1 (Homo sapiens (Human), UniProt Q13546); experiment: KINOMEscan binding assay, RIP1
RIP3 = RIP3 (Homo sapiens (Human), UniProt Q9Y572); experiment: KINOMEscan binding assay, RIP3
Protocol: (§1) Kinase assays. For most assays, kinase-tagged T7 phage strains were grown in parallel in 24-well blocks in an E. coli host derived from the BL21 strain. E. coli were grown to log-phase and infected with T7 phage from a frozen stock (multiplicity of infection=0.4) and incubated with shaking at 32° C. until lysis (90-150 minutes).
(§2) The Hill Slope was set to −1.

MLKL (full length) = MLKL (full length) (Homo sapiens (Human), UniProt Q8NB16); experiment: KINOMEscan binding assay, MLKL (full length)
Protocol: as §1, §2

Sequence of RIP1 (Q13546 whole entry): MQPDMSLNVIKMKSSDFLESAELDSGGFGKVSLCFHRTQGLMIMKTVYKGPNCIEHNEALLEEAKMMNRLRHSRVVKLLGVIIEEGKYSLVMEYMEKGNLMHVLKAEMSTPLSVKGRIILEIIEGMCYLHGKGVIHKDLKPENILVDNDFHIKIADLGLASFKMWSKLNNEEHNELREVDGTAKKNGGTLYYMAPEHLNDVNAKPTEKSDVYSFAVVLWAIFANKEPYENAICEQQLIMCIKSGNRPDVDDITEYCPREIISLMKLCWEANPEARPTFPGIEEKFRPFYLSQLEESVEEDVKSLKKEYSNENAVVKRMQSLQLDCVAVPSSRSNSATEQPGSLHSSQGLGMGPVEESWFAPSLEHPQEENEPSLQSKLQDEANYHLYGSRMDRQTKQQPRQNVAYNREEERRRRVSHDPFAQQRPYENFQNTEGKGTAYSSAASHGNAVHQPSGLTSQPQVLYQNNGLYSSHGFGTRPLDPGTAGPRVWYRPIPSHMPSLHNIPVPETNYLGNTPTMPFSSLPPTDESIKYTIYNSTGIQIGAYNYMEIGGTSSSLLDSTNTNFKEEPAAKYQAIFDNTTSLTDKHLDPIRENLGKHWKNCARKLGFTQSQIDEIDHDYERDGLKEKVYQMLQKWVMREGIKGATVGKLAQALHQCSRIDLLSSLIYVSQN
Sequence of RIP3 (Q9Y572 whole entry): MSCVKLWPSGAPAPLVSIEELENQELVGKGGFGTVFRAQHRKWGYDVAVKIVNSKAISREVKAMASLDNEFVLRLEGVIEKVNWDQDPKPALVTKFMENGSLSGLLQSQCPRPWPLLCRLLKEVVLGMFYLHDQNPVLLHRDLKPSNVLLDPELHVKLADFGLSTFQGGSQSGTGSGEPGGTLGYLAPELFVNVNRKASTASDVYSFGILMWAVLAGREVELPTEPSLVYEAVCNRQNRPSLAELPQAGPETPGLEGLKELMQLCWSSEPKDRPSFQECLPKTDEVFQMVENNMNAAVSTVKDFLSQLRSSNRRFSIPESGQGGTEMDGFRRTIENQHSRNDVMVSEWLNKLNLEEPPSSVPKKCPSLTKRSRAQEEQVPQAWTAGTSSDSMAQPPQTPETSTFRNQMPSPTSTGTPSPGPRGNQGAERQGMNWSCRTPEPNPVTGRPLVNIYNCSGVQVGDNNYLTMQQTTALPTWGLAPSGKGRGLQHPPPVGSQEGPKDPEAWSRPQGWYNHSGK
Sequence of MLKL (full length) (Q8NB16 whole entry): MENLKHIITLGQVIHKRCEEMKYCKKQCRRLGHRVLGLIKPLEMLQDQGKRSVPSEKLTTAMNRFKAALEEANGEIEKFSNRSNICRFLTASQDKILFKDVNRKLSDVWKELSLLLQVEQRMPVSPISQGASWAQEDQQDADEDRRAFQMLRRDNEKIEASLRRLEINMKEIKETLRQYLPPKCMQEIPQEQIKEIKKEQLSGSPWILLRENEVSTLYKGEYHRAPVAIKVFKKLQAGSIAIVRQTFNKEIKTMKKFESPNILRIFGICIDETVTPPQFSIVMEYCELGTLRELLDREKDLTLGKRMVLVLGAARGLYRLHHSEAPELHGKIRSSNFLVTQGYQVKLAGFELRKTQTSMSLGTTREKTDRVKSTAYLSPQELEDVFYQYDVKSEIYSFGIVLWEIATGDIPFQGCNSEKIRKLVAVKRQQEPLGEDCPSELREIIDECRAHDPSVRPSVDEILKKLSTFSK

SMILES | Kd (RIP1) [µM] | Kd (RIP3) [µM] | Kd (MLKL (full length)) [nM]
CCS(=O)(=O)Nc1ccc(-c2n[nH]c(Nc3cccc(C(F)(F)F)n3)c2C(N)=O)cc1OCc1cccc(Cl)c1 [Compound 3, 3-(3-((3-chloro-benzyl)oxy)-4-(ethylsulfon-amido)phenyl)-5-((6-(trifluoro-methyl)pyridin-2-yl)amino)-1H-pyrazole-4-carboxamide] | > 30 | > 30 | –
CCS(=O)(=O)Nc1ccc(-c2n[nH]c(Nc3cccnc3)c2C(N)=O)cc1OCc1ccc(F)cc1 [Compound 6, 3-(4-(ethylsulfonamido)-3-((4-fluorobenzyl)oxy)phenyl) 5-(pyridin-3-ylamino)-1H-pyrazole-4-carboxamide] | > 30 | > 30 | –
CCS(=O)(=O)Nc1ccc(-c2n[nH]c(Nc3cccc(C(F)(F)F)n3)c2C(N)=O)cc1OCC1CCCC1 [Compound 10, 3-(3-(cyclopentyl-methoxy)-4-(ethylsulfon-amido)phenyl)-5-((6-(trifluoro-methyl)pyridin-2-yl)amino)-1H-pyrazole-4-carboxamide] | > 30 | > 30 | –
CCS(=O)(=O)Nc1ccc(-c2n[nH]c(Nc3cccc(C(F)(F)F)n3)c2C(N)=O)cc1OCC(C)C [Compound 12, 3-(4-(ethylsulfonamido)-3-isobutoxyphenyl)-5-((6-(trifluoromethyl)pyridin-2-yl)amino)-1H-pyrazole-4-carboxamide] | > 30 | > 30 | –
CCS(=O)(=O)Nc1ccc(-c2n[nH]c(Nc3cccc(C(F)(F)F)n3)c2C(N)=O)cc1OCc1ccncc1 [Compound 16, 3-(4-(ethylsulfon-amido)-3-(pyridin-4-ylmethoxy)phenyl)-5-((6-(trifluoro-methyl)pyridin-2-yl)amino)-1H-pyrazole-4-carboxamide] | > 30 | > 30 | –
CCS(=O)(=O)Nc1ccc(-c2n[nH]c(Nc3ccccn3)c2C(N)=O)cc1OCC(C)C [Compound 37, 3-(4-(ethylsulfonamido)-3-isobutoxyphenyl)-5-(pyridin-2-ylamino)-1H-pyrazole-4-carboxamide] | > 30 | > 30 | –
CCS(=O)(=O)Nc1ccc(-c2n[nH]c(Nc3cncc(C(F)(F)F)n3)c2C(N)=O)cc1 [Compound 44, 3-(4-(ethylsulfonamido)phenyl)-5-((6-(trifluoromethyl)pyrazin-2-yl)amino)-1H-pyrazole-4-carboxamide] | > 30 | > 30 | –
CCS(=O)(=O)Nc1ccc(-c2n[nH]c(Nc3cnccn3)c2C(N)=O)cc1OCC(C)C [Compound 45, 3-(4-(ethylsulfonamido)-3-isobutoxyphenyl)-5-(pyrazin-2-ylamino)-1H-pyrazole-4-carboxamide] | – | > 30 | –
CN(C)CCS(=O)(=O)Nc1ccc(-c2n[nH]c(Nc3cccc(C(F)(F)F)n3)c2C(N)=O)cc1 [Compound 51, 3-(4-((2-(dimethylamino)ethyl)sulfonamido)phenyl)-5-((6-(trifluoromethyl)pyridin-2-yl)amino)-1H-pyrazole-4-carboxamide] | > 30 | > 30 | –
Cc1ccc(CS(=O)(=O)Nc2ccc(-c3n[nH]c(Nc4cccc(C(F)(F)F)n4)c3C(N)=O)cc2)cc1 [Compound 57, 3-(4-((p-tolylmethyl)sulfonamido)phenyl)-5-((6-(trifluoromethyl)pyridin-2-yl)amino)-1H-pyrazole-4-carboxamide] | – | > 30 | –
CCS(=O)(=O)Nc1ccc(-c2n[nH]c(Nc3cccnn3)c2C(N)=O)cc1 [Compound 64, 3-(4-ethanesulfonamidophenyl)-5-[(pyridazin-3-yl)amino]-1H-pyrazole-4-carboxamide] | > 30 | > 30 | –
CCS(=O)(=O)Nc1ccc(-c2n[nH]c(Nc3cnc4cc(Cl)ccc4n3)c2C(N)=O)cc1 [Compound 65, 5-((6-chloroquinoxalin-2-yl)amino)-3-(4-(ethylsulfonamido)phenyl)-1H-pyrazole-4-carboxamide] | > 30 | > 30 | –
CC(C)(C)S(=O)(=O)Nc1ccc(-c2n[nH]c(Nc3cnccn3)c2C(N)=O)cc1 [Compound 69, 3-(4-((1,1-dimethylethyl)sulfonamido)phenyl)-5-(pyrazin-2-ylamino)-1H-pyrazole-4-carboxamide] | > 30 | > 30 | –
NC(=O)c1c(-c2ccc(NS(=O)(=O)CC3CCC3)cc2)n[nH]c1Nc1cnccn1 [Compound 81, 3-(4-((cyclobutylmethyl)sulfonamido)phenyl)-5-(pyrazin-2-ylamino)-1H-pyrazole-4-carboxamide] | > 30 | > 30 | –
COCCOc1cc(Nc2[nH]nc(-c3ccc(NS(=O)(=O)CCN(C)C)cc3)c2C(N)=O)ccn1 [Compound 116, 3-(4-((2-(dimethylamino)ethyl)sulfonamido)phenyl)-5-((2-(2-methoxyethoxy)pyridin-4-yl)amino)-1H-pyrazole-4-carboxamide] | > 30 | > 30 | –
CCS(=O)(=O)Nc1ccc(-c2n[nH]c(NC)c2C(N)=O)cc1 [Compound 119, 3-(4-(ethylsulfonamido)phenyl)-5-(methylamino)-1H-pyrazole-4-carboxamide] | – | > 30 | –
CCS(=O)(=O)Nc1ccc(-c2n[nH]c(Nc3cnccn3)c2C(N)=O)cc1OCc1c(C)cc(F)cc1C [Compound 142, 3-(4-(ethylsulfonamido)-3-((4-fluoro-2,6-dimethylbenzyl)oxy)phenyl)-5-(pyrazin-2-ylamino)-1H-pyrazole-4-carboxamide] | – | > 30 | –

Second part, the compound after the results:

Kd (RIP1) [µM] | Kd (RIP3) [µM] | Kd (MLKL (full length)) [nM] | SMILES
> 30 | > 30 | – | CCS(=O)(=O)Nc1ccc(-c2n[nH]c(Nc3cnccn3)c2C(N)=O)cc1OCc1ccccc1F [Compound 2, 3-(4-(ethylsulfonamido)-3-((2-fluorobenzyl)oxy)phenyl)-5-(pyrazin-2-ylamino)-1H-pyrazole-4-carboxamide]
> 30 | > 30 | – | CCS(=O)(=O)Nc1ccc(-c2n[nH]c(Nc3cccc(C(F)(F)F)n3)c2C(N)=O)cc1OCc1ccc(Cl)cc1 [Compound 4, 3-(3-((4-chloro-benzyl)oxy)-4-(ethylsulfon-amido)phenyl)-5-((6-(trifluoro-methyl)pyridin-2-yl)amino)-1H-pyrazole-4-carboxamide]
> 30 | > 30 | – | CCS(=O)(=O)Nc1ccc(-c2n[nH]c(Nc3cnccn3)c2C(N)=O)cc1OCC1CCN(C(C)=O)CC1 [Compound 7, 3-(3-((1-acetylpiperidin-4-yl)methoxy)-4-(ethylsulfonamido)phenyl)-5-(pyrazin-2-ylamino)-1H-pyrazole-4-carboxamide]
> 30 | > 30 | – | CCS(=O)(=O)Nc1ccc(-c2n[nH]c(Nc3cccc(C(F)(F)F)n3)c2C(N)=O)cc1OCc1ccc(F)cc1 [Compound 8, 3-(4-(ethylsulfon-amido)-3-((4-fluoro-benzyl)oxy)phenyl)-5-((6-(trifluoro-methyl)pyridin-2-yl)amino)-1H-pyrazole-4-carboxamide]
> 30 | > 30 | – | CCS(=O)(=O)Nc1ccc(-c2n[nH]c(Nc3ccccn3)c2C(N)=O)cc1OCC1CCCCC1 [Compound 35, 3-(3-(cyclohexyl-methoxy)-4-(ethylsulfon-amido)phenyl)-5-(pyridin-2-ylamino)-1H-pyrazole-4-carboxamide]
– | > 30 | – | CCS(=O)(=O)Nc1ccc(-c2n[nH]c(Nc3ccccn3)c2C(N)=O)cc1OCC1CCCC1 [Compound 36, 3-(3-(cyclopentyl-methoxy)-4-(ethylsulfon-amido)phenyl)-5-(pyridin-2-ylamino)-1H-pyrazole-4-carboxamide]
> 30 | > 30 | – | COCCS(=O)(=O)Nc1ccc(-c2n[nH]c(Nc3cccc(C(F)(F)F)n3)c2C(N)=O)cc1 [Compound 50, 3-(4-((2-methoxyethyl)sulfonamido)phenyl)-5-((6-(trifluoromethyl)pyridin-2-yl)amino)-1H-pyrazole-4-carboxamide]
> 30 | > 30 | – | COc1ccc(S(=O)(=O)Nc2ccc(-c3n[nH]c(Nc4cnccn4)c3C(N)=O)cc2)cc1 [Compound 82, 3-(4-((4-methoxyphenyl)sulfonamido)phenyl)-5-(pyrazin-2-ylamino)-1H-pyrazole-4-carboxamide]
> 30 | > 30 | – | NC(=O)c1c(-c2ccc(NS(=O)(=O)Cc3cccc(C(F)(F)F)c3)cc2)n[nH]c1Nc1cnccn1 [Compound 83]
> 30 | > 30 | – | CCCS(=O)(=O)Nc1ccc(-c2n[nH]c(Nc3cnccn3)c2C(N)=O)cc1 [Compound 97, 3-(4-(propylsulfonamido)phenyl)-5-(pyrazin-2-ylamino)-1H-pyrazole-4-carboxamide]
> 30 | > 30 | – | CCS(=O)(=O)Nc1ccc(-c2n[nH]c(Nc3cc(C)ncc3F)c2C(N)=O)cc1 [Compound 111, 3-(4-(ethylsulfonamido)phenyl)-5-((5-fluoro-2-methylpyridin-4-yl)amino)-1H-pyrazole-4-carboxamide]
> 30 | > 30 | – | CCS(=O)(=O)Nc1ccc(-c2n[nH]c(Nc3ccnc(C)n3)c2C(N)=O)cc1 [Compound 125, 3-(4-(ethylsulfonamido)phenyl)-5-((2-methylpyrimidin-4-yl)amino)-1H-pyrazole-4-carboxamide]
> 30 | – | < 10 | NC(=O)c1c(-c2ccc(NS(=O)(=O)CCC(F)(F)F)cc2)n[nH]c1Nc1cccc(C(F)(F)F)n1 [Compound 189, 5-((6-(trifluoromethyl)pyridine-2-yl)amino)-3-(4-((3,3,3-trifluoropropyl)sulfonamido)phenyl)-1H-pyrazole-4-carboxamide]
> 30 | – | < 10 | CCS(=O)(=O)Nc1ccc(-c2n[nH]c(Nc3ccc(OC)nc3)c2C(N)=O)cc1OCc1ccc(F)cc1 [Compound 197, 3-(4-(ethylsulfonamido)-3-((4-fluorobenzyl)oxy)phenyl)-5-((6-methoxypyridin-3-yl)amino)-1H-pyrazole-4-carboxamide]
